Marks after values point to notes of the source that are not given here.
Tests used:
[1] = Stability of the [99mTc]Tc-maG3 complex in PBS and under cysteine challenge (radio-HPLC); type: physicochemical
Procedure: The iTLC data were cross-validated using radio-HPLC analysis, performed using a Hitachi Chromaster HPLC system with a radioactivity detector and Phenomenex Luna® C18 column (100 Å; 150 × 4.6 mm; 5 µm) at room temperature (20 °C), in the following conditions: solvent A: 0.1% trifluoroacetic acid (TFA) in H2O, solvent B: 0.1% TFA in acetonitrile, flow rate: 1 mL/min. For identity and purity analysis of [^99mTc]Tc-BQ0411 and [^99mTc]Tc-BQ0412, the method with a gradient from 5 to 60% solvent B over 20 min was used.
To evaluate the chemical stability of the [^99mTc]Tc-maG3 complex, fractions of radiolabeled conjugates (10 µL, 0.25 µg) were incubated with a 300× molar excess of cysteine or with PBS at room temperature for 1 h. The test was run in triplicate.

[2] = Octanol/water distribution coefficient (LogD); type: physicochemical; conditions: n-octanol / Milli-Q water
Procedure: The LogD was determined experimentally based on the procedure described earlier. Briefly, the radiolabeled compound of interest was added to a LoBind Eppendorf tube (Eppendorf, Hamburg, Germany) containing Milli-Q water (500 μL) and n-octanol (500 μL), and the mixture was vortexed and centrifuged. Thereafter, three fractions from each phase were collected and the activity was measured using a gamma counter. The LogD was calculated by dividing the average activity measured in octanol by the average activity measured in water.

[3] = target: T1, PSMA (Homo sapiens, UniProt Q04609); experiment: In vitro binding specificity (saturation with non-labeled PSMA-11) on PC3-pip cells; conditions: 2 nM tracer, 250-fold molar excess of PSMA-11, 1 h, 37 °C
T1 construct: expressed in transfected cells; host or cells: PC3-pip cells (from Prof. Martin G. Pomper, Johns Hopkins University)
T1 sequence (Q04609 whole entry): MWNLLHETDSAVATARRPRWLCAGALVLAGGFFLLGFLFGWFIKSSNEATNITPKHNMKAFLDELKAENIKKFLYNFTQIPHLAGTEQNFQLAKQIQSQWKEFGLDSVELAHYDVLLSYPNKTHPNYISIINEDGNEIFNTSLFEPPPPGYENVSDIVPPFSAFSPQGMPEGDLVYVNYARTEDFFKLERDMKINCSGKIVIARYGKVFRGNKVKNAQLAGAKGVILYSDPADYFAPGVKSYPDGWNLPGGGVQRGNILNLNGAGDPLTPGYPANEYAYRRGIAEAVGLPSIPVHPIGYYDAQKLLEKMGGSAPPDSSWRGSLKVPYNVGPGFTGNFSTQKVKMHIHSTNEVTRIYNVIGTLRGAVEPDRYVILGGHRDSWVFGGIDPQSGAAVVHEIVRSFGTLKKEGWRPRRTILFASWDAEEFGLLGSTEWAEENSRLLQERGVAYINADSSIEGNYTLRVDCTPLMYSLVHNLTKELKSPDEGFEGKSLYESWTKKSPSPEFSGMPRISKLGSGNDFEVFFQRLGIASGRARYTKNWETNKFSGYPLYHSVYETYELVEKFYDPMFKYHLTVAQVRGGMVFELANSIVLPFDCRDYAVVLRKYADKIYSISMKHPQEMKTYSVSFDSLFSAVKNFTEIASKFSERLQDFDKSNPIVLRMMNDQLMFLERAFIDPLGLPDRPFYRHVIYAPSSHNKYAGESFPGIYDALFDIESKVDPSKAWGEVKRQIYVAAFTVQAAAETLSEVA
Procedure: For the in vitro binding specificity test, approximately 8 × 10^5 of PC3-pip cells per well were seeded in 6-well plates 24 h before the experiment. Cells in three control wells were pre-saturated with a 250-fold excess of non-labeled PSMA-11 15 min before the addition of radiotracers, while the second set was treated with complete media. After 15 min of incubation at room temperature, [^99mTc]Tc-labeled radioligands were added to all wells to reach a concentration of 2 nM. After one hour of incubation at 37 °C, the cells were washed with PBS solution, detached, and collected. Cell-associated activity was measured using a gamma counter and presented as the percentage of added activity.

[4] = target: T1, PSMA; experiment: Real-time binding kinetics on living PC3-pip cells (LigandTracer Yellow); conditions: 5 nM tracer, 1:2 interaction model
Procedure: The binding kinetics of [^99mTc]Tc-labeled BQ0411, BQ0412, and BQ0413 were measured in real time using LigandTracer Yellow Instruments (Ridgeview Instruments AB, Uppsala, Sweden) on PC3-pip cells, as described earlier. The activity binding was recorded at 5 nM on the radiolabeled tracers for 150 min. After measuring the binding kinetics, the medium containing the labeled tracer was replaced with fresh medium, and the dissociation was monitored over 7 h. […]

[5] = tested on: PC3-pip cells; experiment: Cellular processing (internalization) during continuous incubation; type: cell-based; conditions: 2 nM, 37 °C
Procedure: To evaluate the cellular processing of [^99mTc]Tc-labeled BQ0411 and BQ0412, PC3-pip cells were incubated with the radiolabeled tracer (2 nM), and at predetermined time points (1, 2, 4, and 8 h), cells were treated with 0.5 mL of 4 M urea solution in a 0.2 M glycine buffer, pH 2.5, for 5 min on ice. After that, the acidic supernatant was collected, and this fraction was considered to be the membrane-bound activity. To lyse the cells, 0.5 mL of 1 M sodium hydroxide solution was added and incubated at 37 °C for at least 20 min. The alkaline-containing solution was collected, and the basic fraction was considered to be the internalized activity.

[6] = Biodistribution in NMRI mice; type: in vivo; conditions: for activity in carcass / activity in intestines with content / uptake in blood / uptake in kidney / uptake in liver / uptake in lung / uptake in salivary glands / uptake in spleen / uptake in stomach: 40 pmol/mouse iv
Procedure: Four NMRI mice were intravenously injected with 40 pmol of the radiotracer (60 kBq, the mass of the injected compound was adjusted with an unlabeled tracer). The mice were euthanized with a lethal intraperitoneal injection of ketamine/xylazine, followed by exsanguination at 3 and 24 h post-injection (pi). The organs of interest were collected, weighed, and measured for their activity content using a gamma counter. The uptake activity in organs was calculated as the percentage of injected activity per gram (%IA/g) for the blood, salivary glands, lungs, liver, spleen, stomach, and kidneys and as %IA for the remaining carcass and the rest of the intestines with content.

[7] = tested on: PSMA-expressing prostate cancer xenografts (PC3-pip); experiment: Biodistribution and tumor targeting in PC3-pip tumor-bearing mice; type: in vivo, BALB/c nu/nu mice; conditions: 3 h pi
Procedure: PSMA-expressing prostate cancer xenografts were implanted in BALB/c nu/nu mice by subcutaneous injection of PC3-pip cell suspension in PBS (10^7 cells/animal in 100 µL). The average tumor weight was 0.3 ± 0.2 g at the time of the experiment. Four mice per data point were used. Mice were intravenously injected with 5 nmol of the radiotracer (60 kBq, the mass of the injected compound was adjusted with an unlabeled tracer). The mice were euthanized 3 h pi, and the samples were treated as described above.

Q: With `CC(=O)N[C@@H](CCCCNC(=O)C[N]1C(=O)C[N]2C(=O)C[N]3C(=O)C[S][99Tc-]132=[O])C(=O)NCCCCCCCC(=O)N[C@@H](Cc1ccc(O)cc1)C(=O)N[C@@H](Cc1ccc2ccccc2c1)C(=O)NCCCC[C@H](NC(=O)N[C@@H](CCC(=O)O)C(=O)O)C(=O)O` [[^99mTc]Tc-BQ0412] as the compound, how does the “release of activity under cysteine challenge” value ([1]; 300-fold molar excess of cysteine, room temperature, 1 h) read?
A: around 60%

Q: And the “stability during incubation in PBS” value ([1]; PBS, room temperature, 1 h)?
A: stable

Q: And the “share of activity in radio-HPLC peak, retention time 6.2 min” value ([1]; cysteine challenge, radiolabeled product, speculated Tc–cysteine complex)?
A: 32.5%

Q: And the “share of activity in radio-HPLC peak, retention time 14.1 min” value ([1]; cysteine challenge, radiolabeled product, speculated intermediate transchelation product)?
A: 25.5%

Q: And the “logD (octanol–water distribution coefficient)” value [2]?
A: −2.3 ± 0.1

Q: And the “binding to PC3-pip cells after pre-treatment with excess non-labeled PSMA-11” value [3]?
A: significantly (p ˂ 0.0001) decreased

Q: And the ka1 [4]?
A: 31000 M⁻¹ s⁻¹

Q: And the ka2 [4]?
A: 46000 M⁻¹ s⁻¹

Q: And the kd1 [4]?
A: 1.4e-05 s⁻¹

Q: What about the kd2 [4] of the same compound?
A: 1.6e-05 s⁻¹

Q: What about the “internalized activity (of cell-associated activity)” value ([5]; 4 h of continuous incubation) of the same compound?
A: 43 ± 1%

Q: And the “internalized activity (of cell-associated activity)” value ([5]; after 4 h (8 h of continuous incubation))?
A: 32 ± 1%

Q: And the activity in carcass ([6]; 3 h pi)?
A: 2.9 ± 0.1 *^,c %IA/sample

Q: And the “activity in intestines with content” value ([6]; 3 h pi)?
A: 70 ± 7 *^,c %IA/sample

Q: And the uptake in blood ([6]; 3 h pi)?
A: 0.5 ± 0.1 %IA/g

Q: And the uptake in kidney ([6]; 3 h pi)?
A: 56 ± 9 *^,c %IA/g

Q: What about the uptake in liver ([6]; 3 h pi) of the same compound?
A: 3 ± 1 *^,c %IA/g

Q: What about the uptake in lung ([6]; 3 h pi) of the same compound?
A: 0.3 ± 0.1 *^,c %IA/g

Q: And the “uptake in salivary glands” value ([6]; 3 h pi)?
A: 0.24 ± 0.03 *^,c %IA/g

Q: What about the uptake in spleen ([6]; 3 h pi) of the same compound?
A: 0.23 ± 0.07 *^,c %IA/g

Q: What about the uptake in stomach ([6]; 3 h pi) of the same compound?
A: 0.17 ± 0.03 *^,c %IA/g

Q: What about the activity in carcass ([6]; 24 h pi) of the same compound?
A: 0.12 ± 0.03 ^c %IA/sample

Q: And the “activity in intestines with content” value ([6]; 24 h pi)?
A: 0.16 ± 0.04 ^c %IA/sample

Q: What about the uptake in blood ([6]; 24 h pi) of the same compound?
A: 0.016 ± 0.002 ^c %IA/g

Q: What about the uptake in kidney ([6]; 24 h pi) of the same compound?
A: 1.1 ± 0.3 ^c %IA/g

Q: And the uptake in liver ([6]; 24 h pi)?
A: 0.016 ± 0.004 ^c %IA/g

Q: What about the uptake in lung ([6]; 24 h pi) of the same compound?
A: 0.014 ± 0.008 ^c %IA/g

Q: And the “uptake in salivary glands” value ([6]; 24 h pi)?
A: 0.015 ± 0.006 ^c %IA/g

Q: What about the uptake in spleen ([6]; 24 h pi) of the same compound?
A: 0.007 ± 0.005 %IA/g

Q: What about the uptake in stomach ([6]; 24 h pi) of the same compound?
A: 0.07 ± 0.05 ^c %IA/g

Q: And the “uptake in intestines with content, fold higher than [99mTc]Tc-BQ0411” value ([6]; 3 h pi)?
A: 1.6 fold

Q: What about the “uptake in kidneys, fold lower than [99mTc]Tc-BQ0411” value ([6]; 3 h pi) of the same compound?
A: 2.3 fold

Q: And the “activity remaining in the body” value ([6]; 3 h pi, excluding activity in the intestines with content)?
A: 20–30 % from injected

Q: What about the “washout of activity from kidneys” value ([6]; 24 h pi compared to 3 h pi) of the same compound?
A: 98%

Q: And the activity in carcass ([7]; 5 nmol/mouse iv)?
A: 2.6 ± 1.3 %IA/sample

Q: What about the “activity in intestines with content” value ([7]; 5 nmol/mouse iv) of the same compound?
A: 69 ± 17 ^c %IA/sample

Q: And the uptake in blood ([7]; 5 nmol/mouse iv)?
A: 0.5 ± 0.1 %IA/g

Q: And the uptake in bone ([7]; 5 nmol/mouse iv)?
A: 0.15 ± 0.07 %IA/g

Q: And the uptake in kidney ([7]; 5 nmol/mouse iv)?
A: 16 ± 5 %IA/g

Q: What about the uptake in liver ([7]; 5 nmol/mouse iv) of the same compound?
A: 0.5 ± 0.1 %IA/g

Q: And the uptake in lung ([7]; 5 nmol/mouse iv)?
A: 0.5 ± 0.1 %IA/g

Q: And the uptake in muscle ([7]; 5 nmol/mouse iv)?
A: 0.2 ± 0.1 %IA/g

Q: And the uptake in pancreas ([7]; 5 nmol/mouse iv)?
A: 0.4 ± 0.3 %IA/g

Q: What about the “uptake in salivary glands” value ([7]; 5 nmol/mouse iv) of the same compound?
A: 0.2 ± 0.1 ^c %IA/g

Q: And the “uptake in small intestine” value ([7]; 5 nmol/mouse iv)?
A: 1.2 ± 0.7 ^c %IA/g

Q: And the uptake in spleen ([7]; 5 nmol/mouse iv)?
A: 0.6 ± 0.3 %IA/g

Q: And the uptake in stomach ([7]; 5 nmol/mouse iv)?
A: 0.3 ± 0.2 %IA/g

Q: What about the uptake in tumor ([7]; 5 nmol/mouse iv) of the same compound?
A: 17 ± 5 %IA/g

Q: And the tumor-to-blood ratio ([7]; 5 nmol/mouse)?
A: 35 ± 4 ^c

Q: What about the tumor-to-bone ratio ([7]; 5 nmol/mouse) of the same compound?
A: 128 ± 38

Q: And the tumor-to-kidney ratio ([7]; 5 nmol/mouse)?
A: 1.1 ± 0.1

Q: What about the tumor-to-liver ratio ([7]; 5 nmol/mouse) of the same compound?
A: 35 ± 5 ^c

Q: And the tumor-to-lung ratio ([7]; 5 nmol/mouse)?
A: 39 ± 6

Q: What about the tumor-to-muscle ratio ([7]; 5 nmol/mouse) of the same compound?
A: 143 ± 58 ^c

Q: And the tumor-to-pancreas ratio ([7]; 5 nmol/mouse)?
A: 82 ± 33

Q: What about the tumor-to-salivary ratio ([7]; 5 nmol/mouse) of the same compound?
A: 90 ± 16 ^c

Q: What about the tumor-to-small intestine ratio ([7]; 5 nmol/mouse) of the same compound?
A: 19 ± 9 ^c

Q: What about the tumor-to-spleen ratio ([7]; 5 nmol/mouse) of the same compound?
A: 26 ± 6

Q: And the tumor-to-stomach ratio ([7]; 5 nmol/mouse)?
A: 77 ± 29

Q: What about the “activity uptake in the gastrointestinal tract (with content)” value [7] of the same compound?
A: over 40 %IA

From PMC11011439, “Influence of Molecular Design on the Tumor Targeting and Biodistribution of PSMA-Binding Tracers Labeled with Technetium-99m” (International Journal of Molecular Sciences, 2024)
